The source of these data is US12590127B2, “Split photoactive yellow protein complementation system and uses thereof” (PARIS SCIENCES ET LETTRES, priority 2019, dated 2026).

In series [1] the target is T1, NFAST (Halorhodospira halophila, UniProt P16113, C69G/D97P/F96I/M100R/Q99S/T101G/T95M/Y94W/Y98T).
T1 construct: His tag (N); made in house; host or cells: Rosetta (DE3) pLysS E. coli
The series is described as follows: Thermodynamic dissociation constants of NFAST:CFASTn couples in the presence of fluorogen (plate reader, one-site specific binding fit). As to conditions: synthetic CFASTn peptide and purified NFAST. On the procedure:
In one embodiment, the thermodynamic dissociation constant KD is determined by spectrofluorometric titration as described in the Examples.
Expression vectors were transformed in Rosetta (DE3) pLysS E. coli (NEW ENGLAND BIOLABS®). Cells were grown at 37° C. in LB medium complemented with 50 μg/mL kanamycin and 34 μg/mL chloramphenicol to OD600 nm 0.6. Expression was induced for 4 hours by adding isopropyl β-D-1-thiogalactopyranoside (IPTG) to a final concentration of 1 mM. Cells were harvested by centrifugation (4,000×g for 20 min at 4° C.) and frozen. The cell pellet was resuspended in lysis buffer (phosphate buffer 50 mM, NaCl 150 mM, MgCl2 2.5 mM, protease inhibitor, DNase, pH 7.4) and sonicated (5 min at 20% of amplitude, 3 sec on, 1 sec off). The lysate was incubated for 2 hours at 4° C. to allow DNA digestion by DNase. Cellular fragments were removed by centrifugation (9200×g for 1 hour at 4° C.). The supernatant was incubated overnight at 4° C. under gentle agitation with Ni-NTA agarose beads in phosphate buffered saline (PBS) (sodium phosphate 50 mM, NaCl 150 mM, pH 7.4) complemented with 10 mM imidazole. Beads were washed with 20 volumes of PBS containing 20 mM imidazole, and with 5 volumes of PBS complemented with 40 mM imidazole. His-tagged proteins were eluted with 5 volumes of PBS complemented with 0.5 M imidazole. The buffer was exchanged to PBS (50 mM phosphate, 150 mM NaCl, pH 7.4) using PD-10 desalting columns.
Thermodynamic dissociation constants for NFAST:CFASTn (n=8 to 11) couples were determined using peptides synthesized for CFASTn (n=8 to 11) and recombinantly purified NFAST. The affinity for NFAST:CFAST11 in the presence of 10 μM HMBR was determined independently from a minimum of three different purifications of NFAST. NFAST:CFAST11 was then run in parallel as an internal control for the determination of the other NFAST-CFAST combinations, which were all performed on the same day with the same preparation of NFAST. Thermodynamic dissociation constants were determined with a Spark 10M plate reader (TECAN®) and fit in Prism 6 to a one-site specific binding model.

In series [2] the test system is HEK 293T cells. The series is described as follows: Relative in-cell brightness of split-FAST after rapamycin-induced FRB-FKBP complementation. It counts as cell-based, human. As to conditions: FIG. 4; for relative in-cell brightness (fluorescence observed) by C-terminal fragment: FRB-NFAST + FKBP-CFASTn, any of HMBR, HBR-3,5DM, HBR-30M, HBR-3,5DOM. From the text:
FIGS. 4A-4D are a set of histograms showing the relative in-cell brightness of various split-FAST with different fluorogenic HBR analogs as indicated (4A: HMBR, 4B: HBR-3,5DM, 4C: HBR-30M, and 4D: HBR-3,5DOM) in function of the C-terminal fragment CFASTn (n=11, 10 or 9) and the N-terminal fragment used. The iFAST label indicates when NFAST from iFAST (i.e., the first PYP fragment according to the invention consisting of the amino acid sequence NFAST with an isoleucine at position 107 instead of a valine as set forth in SEQ ID NO: 30) was used. If absent, NFAST from FAST was used (i.e., the first PYP fragment according to the invention consisting of the amino acid sequence as set forth in SEQ ID NO: 23). CFAST11, CFAST10 and CFAST9 correspond to the second PYP fragment according to the invention consisting of the amino acid sequence as set forth in SEQ ID NO: 34, SEQ ID NO: 42 and SEQ ID NO: 43, respectively. NFAST fragments were fused to FRB and CFAST fragments were fused to FKBP. Complementation was induced by addition of rapamycin. Split-FAST fluorescence was normalized by expression level using the fluorescence of co-expressed fluorescent proteins.
HEK 293T cells were seeded in ibidi μDish microscopy dishes and 24 hours prior to imaging were co-transfected with plasmids encoding CMV-FRB-NFAST (or NFAST(V107I))-P2A-mCherry (or EGFP)) and CMV-FKBP-CFASTn (n=11, 10 or 9). The cells were imaged before and after addition of 500 nM rapamycin.

The test system of series [3] is HEK293 cells. The series is described as follows: Photobleaching / photostability of split-FAST:HMBR in cells by confocal microscopy. As to conditions: 10 μM HMBR, 488 nm excitation, rapamycin-treated cells, FAST as control, FIG. 5E. It counts as cell-based, human. How it is done: FIGS. 5A-5G illustrate the detection of rapamycin-induced FRB-FKBP dimerization with the complementation system of the invention. 5A and 5B show HEK293T cells co-expressing FKBP-NFAST and FRB-CFASTn (n=10 or 11) which were labeled with 5 μM HMBR (5A) or 10 μM HBR-3,5DOM (5B) and imaged before and after addition of 100 nM rapamycin. Scale bars 10 μm. […] Cells expressing FRB-NFAST and FKBP-CFASTn (n=10 or 11) were treated with rapamycin to form split-FAST11 and split-FAST10. Cells expressing FAST were used as control. HMBR concentration was 10 μM. Excitation at 488 nm at 6.3 kW/cm2. Six cells were analyzed per condition. […] Scale bars 20 μm. […] Scale bars 20 μm.
Photobleaching measurements for HMBR were carried out at 10 μM fluorogen at 488 nm excitation (4.6 kW/cm2, […] pixel dwell); FAST was used as a control. Samples were imaged continuously for 1000 images at a 1 frame per second frequency.

Setting [4] is: KD of NFAST-CFASTn 10 μM HMBR, in the presence of 10 μM HMBR.
The mark [5] stands for this setting: KD of NFAST-CFASTn 10 μM HBR-3,5-DOM, in the presence of 10 μM HBR-3,5-DOM.

What is called Kd is the free concentration of one partner at which half of the binding sites on the other are occupied at equilibrium, for simple one-to-one binding.

T1 sequence (P16113 1-114 C69G/Y94W/T95M/F96I/D97P/Y98T/Q99S/M100R/T101G): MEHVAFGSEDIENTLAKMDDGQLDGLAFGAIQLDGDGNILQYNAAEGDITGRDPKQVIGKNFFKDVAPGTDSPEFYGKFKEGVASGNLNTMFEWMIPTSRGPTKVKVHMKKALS

Ac-GDSYWVFV-NH2 [CFAST8]: the Kd in series [1] (setting [4]) amounted to 21 ± 4 µM.

As to Ac-GDSYWVFVK-NH2 [CFAST9], the Kd turned out to be 25 ± 1 µM in series [1] (setting [5]) and 5.7 ± 0.06 µM in series [1] (setting [4]). In addition, the “relative in-cell brightness (fluorescence observed) by C-terminal fragment” value (“relative in-cell brightness” for short) in series [2] is reported as “lowest”.

Regarding Ac-GDSYWVFVKR-NH2 [CFAST10], the Kd in series [1] (setting [5]) was 6.2 ± 0.5 µM; in series [1] (setting [4]), 0.95 ± 0.08 µM. Also, the “photostability of split-FAST:fluorogen assembly in cells” value in series [3] is given as “as photostable as the regular FAST:fluorogen complex”. Moreover, the “relative in-cell brightness” value in series [2] was “lower”.

Regarding Ac-GDSYWVFVKRV-NH2 [CFAST11], the Kd in series [1] (setting [5]) is 1.4 ± 0.2 µM; in series [1] (setting [4]), 0.21 ± 0.05 µM. Further, the “photostability of split-FAST:fluorogen assembly in cells” value in series [3] is given as “as photostable as the regular FAST:fluorogen complex”. In addition, the “relative in-cell brightness” value in series [2] was “highest”.

B1: iFAST: FAST variant with isoleucine at position 107 (SEQ ID NO: 16); its Nter fragment is SEQ ID NO: 30 (protein)
chain: MEHVAFGSEDIENTLAKMDDGQLDGLAFGAIQLDGDGNILQYNAAEGDITGRDPKQVIGKNFFKDVAPGTDSPEFYGKFKEGVASGNLNTMFEWMIPTSRGPTKVKIHMKKALSGDSYWVFVKRV
modifications: functional PYP
For B1, in series [2] (HEK 293T cells), the “fluorescence of the Nter fragment of iFAST + CFAST compared with NFAST + CFAST” value is reported as “similar”.
